“And” between values parts separate entries of the source, which are not always exact repeats. Equal entries are not always repeated.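 96-well plates; 48 h exposure; 5 concentrations. Endpoints by linear interpolation between flanking doses. Not reached: highest tested concentration assigned. Here, GI50 denotes the concentration required for 50% inhibition of growth. TGI is the concentration that stops growth completely.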
Assays:
Assay in all cases: NCI-60 cell line screen, 48 h
BT-549 breast = system: BT-549 breast
EKVX NSCLC = system: EKVX NSCLC
HL-60(TB) leukemia = system: HL-60(TB) leukemia
KM12 colon = system: KM12 colon
M14 melanoma = system: M14 melanoma
NCI-H226 lung = system: NCI-H226 lung
OVCAR-5 ovarian = system: OVCAR-5 ovarian
SF-295 CNS = system: SF-295 CNS
SNB-19 CNS = system: SNB-19 CNS
U251 CNS = system: U251 CNS

## CC[C@@]1(O)C(=O)OCc2c1cc1n(c2=O)Cc2cc3cc(N)ccc3nc2-1
BT-549 breast
  GI50: 0.158 µM
  TGI: 1.11 µM
EKVX NSCLC
  GI50: 0.304 µM and 0.348 µM
  TGI: 9.06 µM and 44 µM
HL-60(TB) leukemia
  GI50: 0.0718 µM
  TGI: 1.03 µM
KM12 colon
  GI50: 0.232 µM
  TGI: 2.9 µM
M14 melanoma
  GI50: 0.0162 µM
  TGI: 0.404 µM and 0.0409 µM
NCI-H226 lung
  GI50: 0.00742 µM and 0.0143 µM
  TGI: 0.111 µM and 0.108 µM
OVCAR-5 ovarian
  GI50: 0.0195 µM and 0.11 µM
  TGI: 0.109 µM and 0.627 µM
SF-295 CNS
  GI50: 0.00207 µM
  TGI: 0.0717 µM and 0.055 µM
SNB-19 CNS
  GI50: 0.0169 µM and < 0.0119 µM
  TGI: 4.11 µM and > 29.4 µM
U251 CNS
  GI50: 0.0013 µM
  TGI: 0.134 µM

## O=S1(=O)c2ccccc2NC(=S)CC1c1ccccc1 (stereo unspecified)
BT-549 breast
  TGI: > 100 µM
EKVX NSCLC
  TGI: > 100 µM
HL-60(TB) leukemia
  TGI: > 100 µM
KM12 colon
  TGI: > 100 µM
M14 melanoma
  TGI: > 100 µM
NCI-H226 lung
  TGI: > 100 µM
OVCAR-5 ovarian
  TGI: > 100 µM
SF-295 CNS
  TGI: 79.8 µM
SNB-19 CNS
  TGI: > 100 µM
U251 CNS
  TGI: > 100 µM

## CCC(c1cccc(O)c1)C(CC)c1cccc(O)c1 (stereo unspecified)
BT-549 breast
  GI50: 1.09 µM
  TGI: 14.3 µM
EKVX NSCLC
  GI50: 4.54 µM
  TGI: 35.7 µM
KM12 colon
  GI50: 3.03 µM
  TGI: 13.6 µM
M14 melanoma
  GI50: 2.93 µM
  TGI: 13.2 µM
NCI-H226 lung
  GI50: 12.1 µM
  TGI: 26.3 µM
OVCAR-5 ovarian
  GI50: 12 µM
  TGI: 24.3 µM
SF-295 CNS
  GI50: 3.99 µM
  TGI: 19.7 µM
SNB-19 CNS
  GI50: 13.2 µM
  TGI: 26 µM
U251 CNS
  GI50: 3.63 µM
  TGI: 14.7 µM

## C[C@]12CC[C@@H]3c4ccc(O)cc4C(O)C[C@H]3[C@@H]1CCC2=O (stereo partly specified)
BT-549 breast
  GI50: > 100 µM
  TGI: > 100 µM
EKVX NSCLC
  GI50: 48.8 µM
  TGI: > 100 µM
HL-60(TB) leukemia
  GI50: > 100 µM
  TGI: > 100 µM
KM12 colon
  GI50: > 100 µM
  TGI: > 100 µM
M14 melanoma
  GI50: > 100 µM
  TGI: > 100 µM
NCI-H226 lung
  GI50: > 100 µM
  TGI: > 100 µM
OVCAR-5 ovarian
  GI50: > 100 µM
  TGI: > 100 µM
SF-295 CNS
  GI50: > 100 µM
  TGI: > 100 µM
SNB-19 CNS
  GI50: > 100 µM
  TGI: > 100 µM
U251 CNS
  GI50: > 100 µM
  TGI: > 100 µM

## CSc1ccc(/C=C2\C=C(CC(=O)NCc3ccc(C(=O)c4ccccc4)cc3)c3cc(F)ccc32)cc1
BT-549 breast
  GI50: 1.43 µM
  TGI: 21.9 µM
EKVX NSCLC
  GI50: 0.423 µM
  TGI: > 100 µM
HL-60(TB) leukemia
  GI50: 0.0409 µM
  TGI: 0.208 µM
KM12 colon
  GI50: 0.0335 µM
  TGI: 1.48 µM
M14 melanoma
  GI50: 0.0449 µM
  TGI: 4.16 µM
NCI-H226 lung
  GI50: 0.0951 µM
  TGI: 0.903 µM
OVCAR-5 ovarian
  GI50: 0.0618 µM
  TGI: 24.9 µM
SF-295 CNS
  GI50: 0.0453 µM
  TGI: 6.9 µM
SNB-19 CNS
  GI50: 0.0705 µM
  TGI: > 100 µM
U251 CNS
  GI50: 0.0379 µM
  TGI: 2.33 µM

## CC(=O)OCC=C(CCl)CCC(Br)C(C)(C)Br (mixture of isomers)
BT-549 breast
  TGI: > 10 µM
EKVX NSCLC
  TGI: > 10 µM
HL-60(TB) leukemia
  TGI: > 10 µM
KM12 colon
  TGI: > 10 µM
M14 melanoma
  TGI: > 10 µM
NCI-H226 lung
  TGI: > 10 µM
OVCAR-5 ovarian
  TGI: > 10 µM
SF-295 CNS
  TGI: > 10 µM
SNB-19 CNS
  TGI: > 10 µM
U251 CNS
  TGI: > 10 µM

## O=C1CCCN1CC#CCN1CCCC1
BT-549 breast
  GI50: > 100 µM
  TGI: > 100 µM
EKVX NSCLC
  GI50: > 100 µM
  TGI: > 100 µM
HL-60(TB) leukemia
  GI50: > 100 µM
  TGI: > 100 µM
KM12 colon
  GI50: > 100 µM
  TGI: > 100 µM
M14 melanoma
  GI50: > 100 µM
  TGI: > 100 µM
NCI-H226 lung
  GI50: > 100 µM
  TGI: > 100 µM
OVCAR-5 ovarian
  GI50: > 100 µM
  TGI: > 100 µM
SF-295 CNS
  GI50: > 100 µM
  TGI: > 100 µM
SNB-19 CNS
  GI50: > 100 µM
  TGI: > 100 µM
U251 CNS
  GI50: > 100 µM
  TGI: > 100 µM

## c1nnc(NCNc2nncs2)s1
BT-549 breast
  TGI: > 100 µM
EKVX NSCLC
  TGI: > 100 µM
HL-60(TB) leukemia
  TGI: > 100 µM
KM12 colon
  TGI: > 100 µM
M14 melanoma
  TGI: > 100 µM
NCI-H226 lung
  TGI: > 100 µM
OVCAR-5 ovarian
  TGI: > 100 µM
SF-295 CNS
  TGI: > 100 µM
SNB-19 CNS
  TGI: > 100 µM
U251 CNS
  TGI: > 100 µM

## CC(=O)Nc1ccc(S(=O)(=O)NNC(=O)c2cccnc2Nc2ccc(Cl)cc2)cc1
BT-549 breast
  GI50: 25.2 µM
  TGI: > 100 µM
EKVX NSCLC
  GI50: 48.9 µM
  TGI: > 100 µM
HL-60(TB) leukemia
  GI50: 9.67 µM
  TGI: > 100 µM
KM12 colon
  GI50: 4.19 µM
  TGI: > 100 µM
M14 melanoma
  GI50: 11.5 µM
  TGI: > 100 µM
NCI-H226 lung
  GI50: 42.3 µM
  TGI: > 100 µM
SF-295 CNS
  GI50: 3.49 µM
  TGI: > 100 µM
SNB-19 CNS
  GI50: 14.1 µM
  TGI: > 100 µM
U251 CNS
  GI50: 23.8 µM
  TGI: > 100 µM

## OCC1OC(n2cnc3c(/C=C(/O)c4ccccc4)ncnc32)C(O)C1O (stereo unspecified)
BT-549 breast
  TGI: > 100 µM
EKVX NSCLC
  TGI: > 100 µM
HL-60(TB) leukemia
  TGI: 24 µM
KM12 colon
  TGI: > 100 µM
M14 melanoma
  TGI: > 100 µM
NCI-H226 lung
  TGI: > 92.7 µM
OVCAR-5 ovarian
  TGI: > 100 µM
SF-295 CNS
  TGI: > 100 µM
SNB-19 CNS
  TGI: > 100 µM
U251 CNS
  TGI: > 100 µM

## Oc1ccccc1-c1nc2c3ccccc3c3ccccc3c2[nH]1
BT-549 breast
  GI50: 9.06 µM
  TGI: 21.7 µM
EKVX NSCLC
  GI50: 4.33 µM
  TGI: 20.6 µM
HL-60(TB) leukemia
  GI50: 3.66 µM
  TGI: 14.9 µM
KM12 colon
  GI50: 4.32 µM
  TGI: 14.1 µM
M14 melanoma
  GI50: 11.7 µM
  TGI: 24 µM
NCI-H226 lung
  GI50: 7.85 µM
  TGI: 20.9 µM
OVCAR-5 ovarian
  GI50: 15 µM
  TGI: 28.3 µM
SF-295 CNS
  GI50: 10.4 µM
  TGI: 22.2 µM
SNB-19 CNS
  GI50: 12.4 µM
  TGI: 24.9 µM
U251 CNS
  GI50: 10.5 µM
  TGI: 22.2 µM

## CN[C@@H]1C[C@H]2O[C@@](C)([C@@H]1OC)n1c3ccccc3c3c4c(c5c6ccccc6n2c5c31)C(=O)N[C@@H]4O
BT-549 breast
  GI50: 0.0193 µM
  TGI: 0.3 µM and 0.627 µM
EKVX NSCLC
  TGI: 0.232 µM and 2.12 µM
KM12 colon
  GI50: 0.0185 µM
M14 melanoma
  GI50: 0.0311 µM
  TGI: 0.3 µM and 1.25 µM
NCI-H226 lung
  GI50: 0.0492 µM
  TGI: 0.3 µM and 0.477 µM
OVCAR-5 ovarian
  GI50: 0.0226 µM
  TGI: 0.298 µM and 0.24 µM
SF-295 CNS
  GI50: 0.0367 µM
  TGI: 0.3 µM and 0.204 µM
SNB-19 CNS
  GI50: 0.0502 µM
  TGI: 0.161 µM and 0.77 µM
U251 CNS
  TGI: 0.3 µM and 0.333 µM

## CC(C)[C@H]1C(=O)N[C@@H](CCCN=C(N)N)C(=O)NCC(=O)N[C@@H](CC(=O)O)C(=O)N[C@H](Cc2ccccc2)C(=O)N1C
BT-549 breast
  GI50: 1.6 µM
  TGI: 3.13 µM
HL-60(TB) leukemia
  GI50: > 100 µM
  TGI: > 100 µM
KM12 colon
  GI50: > 100 µM
  TGI: > 100 µM
M14 melanoma
  GI50: > 100 µM
  TGI: > 100 µM
NCI-H226 lung
  GI50: 9.21 µM
  TGI: > 100 µM
OVCAR-5 ovarian
  GI50: 1.34 µM
  TGI: > 100 µM
SF-295 CNS
  GI50: > 82.7 µM
  TGI: > 100 µM
SNB-19 CNS
  GI50: 2.66 µM
  TGI: > 100 µM
U251 CNS
  GI50: > 23.2 µM
  TGI: > 100 µM

## Cc1cc(=O)oc2cc(O)c(CN(C)CC(=O)O)cc12
BT-549 breast
  TGI: > 100 µM
EKVX NSCLC
  TGI: > 100 µM
HL-60(TB) leukemia
  TGI: > 100 µM
KM12 colon
  TGI: > 100 µM
M14 melanoma
  TGI: > 100 µM
NCI-H226 lung
  TGI: > 100 µM
OVCAR-5 ovarian
  TGI: > 100 µM
SNB-19 CNS
  TGI: > 100 µM
U251 CNS
  TGI: > 100 µM

## COc1ccc(C2CC(n3nnnc3-c3ccccc3)=NN2)cc1 (stereo unspecified)
BT-549 breast
  GI50: 8.89 µM
  TGI: 37.6 µM
EKVX NSCLC
  GI50: 1.8 µM
  TGI: 36.3 µM
KM12 colon
  GI50: 0.617 µM
  TGI: 13.6 µM
M14 melanoma
  GI50: 0.6 µM
  TGI: 14.6 µM
NCI-H226 lung
  GI50: 4.98 µM
  TGI: 22.8 µM
OVCAR-5 ovarian
  GI50: 5.59 µM
  TGI: 61.7 µM
SF-295 CNS
  GI50: 0.662 µM
  TGI: 3.12 µM
SNB-19 CNS
  GI50: 18.1 µM
  TGI: > 100 µM
U251 CNS
  GI50: 9.88 µM
  TGI: 35.9 µM

Reference: PubChem BioAssay (NCI)
